Test results reported in patent US7994326B2 (Northwestern University, priority 2003, dated 2011).

Columns and labels:
[1] = molecular target: T1, rat nNOS (Rattus norvegicus, UniProt P29476); assay: NOS enzyme inhibitory assay (hemoglobin capture), nNOS; format: biochemical; settings: Table 1a; for Selectivity n/i: Ki(iNOS)/Ki(nNOS); for Ki: apparent Ki calculated from IC50, Km […], read-out: calc. Ki nNOS; for IC50: rat nNOS, 10 μM L-arginine
T1 construct: made in house; host or cells: E. coli (plasmid pCWnNOS)
Description: (§1) All of the NOS isoforms used were recombinant enzymes overexpressed in E. coli from different sources. Nitric oxide formation from NOS was monitored by the hemoglobin capture assay as described in the literature.
After approximately 48 h of post-induction incubation in the dark at 25° C. the cells were pelleted at 5300×g, transferred to 50 mL conical tubes, and stored at −80° C.
nNOS purification: Cell pellets from 2.0 L of culture were resuspended in sonication Buffer A (50 mM Tris Base Buffer, pH 8.0, 10% glycerol), 2 mg/ml lysozyme. 0.5 mM L-arginine. 1 mM EDTA, 0.1 mM PMSF, 1 µg/ml antipain, and 1 μM each of leupeptin, […], and […]) and lysed by sonication. Centrifugation for 1 h at 100000×g yielded supernatant which contained nNOS active enzyme. The supernatant was brought to 2 mM CaCl2 and the protein was loaded onto a 15 ml calmodulin-Sepharose column equilibrated with Buffer A containing 2 mM CaCl2. The column was washed with 100 ml Buffer B (50 mM Hepes, 5 mM DTT, and […]) containing 2 mM CaCl2, 0.5 mM L-arginine, and 10 μM BH4, and eluted with 30 ml Buffer B supplemented with 0.3 M NaCl, 5 mM EGTA, 0.5 mM L-arginine, and 10 μM BH4. The protein was then loaded onto a 5 ml 2′,5′-ADP-Sepharose column equilibrated with Buffer B supplemented with 0.3 M NaCl, 0.5 mM L-arginine, and 10 μM BH4. The column was washed with 25 ml Buffer B containing 0.5 mM L-arginine and 10 μM BH4, and then 25 ml of Buffer B only supplemented with 10 μM BH4 (without L-arginine). Neuronal NOS was eluted with 20 ml Buffer B supplemented with 10 mM 2′(3′)-AMP, 10 μM BH4 and 0.3 M NaCl. The 20 ml eluent was then concentrated to 5 ml by ultrafiltration. The above concentration operation was repeated twice more with 10 ml Buffer B supplemented with 10 µM BH4 to give the purified neuronal NOS.
Nitric oxide formation from NOS was monitored by the hemoglobin capture assay as described previously.
(§2) The selectivity of an inhibitor is defined as the ratio of the respective Ki values.

[2] = molecular target: T2, murine iNOS (Mus musculus, UniProt P29477); assay: NOS enzyme inhibitory assay (hemoglobin capture), iNOS; format: biochemical; settings: Table 1a; for Ki: apparent Ki calculated from IC50, Km […], read-out: calc. Ki iNOS; for IC50: murine iNOS, 10 μM L-arginine
T2 construct: made in house; host or cells: E. coli (plasmid pCWiNOS)
Source text: as §1
Enzyme inhibitory assay. All of the NOS isoforms used are recombinant enzymes overexpressed in E. coli from different sources.
iNOS expression: An overnight culture of pCWiNOS was used to inoculate (1:100) larger cultures of Terrific Broth media (12 g/L tryptone, 24 g/L yeast extract, 4 mL/L glycerol, 17 mM KH2PO4, and 72 mM K2HPO4) containing 50 μg/mL ampicillin and 34 μg/mL chloramphenicol at 37° C. At an OD600 of ˜0.5, the culture was cooled to 25° C. and induced by the addition of 1 mM IPTG (final concentration). After approximately 24 h of growth at 25° C., the cells were pelleted at 5300×g, transferred to 50 mL conical tubes, and stored at −80° C.
iNOS purification: Cell pellets from 1.0 L of culture were resuspended in sonication buffer (50 mM Hepes, pH 7.4, 10% glycerol, 10 μg/mL benzamidine, 5 μg/mL leupeptin, 0.2 mM of PMSF, and 1 μg/mL each of pepstatin, chymostatin, and antipain) and lysed by sonication. Centrifugation for 20 min at 13000×g yielded supernatant which contained iNOS active enzyme. iNOS supernatant was loaded onto 1 g of a 2′,5′-ADP-Sepharose 4B resin column. The column was then washed with 20 ml iNOS purification buffer (10 mM K2HPO4, 10% glycerol, 0.5 mM L-arginine, pH 7.4) and 10 μM BH4. Inducible NOS was eluted with 30 ml iNOS purification buffer supplemented with 10 mM 2′(3′)-AMP, 10 μM BH4, and 0.3 M NaCl. The eluent was concentrated to 5 ml by ultrafiltration. The above concentration operation was repeated three times more with 10 ml Hepes buffer supplemented with 10 μM BH4, to give purified inducible NOS.
Nitric oxide formation from NOS was monitored by the hemoglobin capture assay as described previously. (Hevel, J. M.; Marletta, M. A. Nitric Oxide Synthase Assays. Methods Enzymol. 1994, […], 250-258).
as §2

Cl.Cl.Nc1cccc(CC2CN(Cc3ccccc3)CC2O)n1 (racemic) [Compound P-1] showed a Selectivity n/i [1] of 11.71, a Ki [1] of 78.5 µM and an IC50 [1] of 682 µM. For the same compound, the Ki [2] was 919 µM and the IC50 [2] was 2030 µM.
Cl.Cl.Cl.Nc1cccc(C[C@H]2CN(Cc3ccccc3)C[C@@H]2NCCCc2ccccc2)n1 (racemic) [Compound P-2] showed a Selectivity n/i [1] of 4.3, a Ki [1] of 14 µM and an IC50 [1] of 122 µM. For the same compound, the Ki [2] was 60.1 µM and the IC50 [2] was 132 µM.
For Cl.Cl.Cl.Nc1cccc(C[C@H]2CN(Cc3ccccc3)C[C@@H]2NCCCO)n1 (racemic) [Compound P-3], the Selectivity n/i [1] was 9.19, the Ki [1] was 190 µM and the IC50 [1] was 1650 µM. It also gave a Ki [2] of 1750 µM and an IC50 [2] of 3860 µM.
Compound Cl.Cl.Cl.Nc1cccc(C[C@H]2CN(Cc3ccccc3)C[C@H]2NCCCc2ccccc2)n1 (racemic) [Compound P-4] has a Selectivity n/i [1] of 12.71, a Ki [1] of 47.9 µM and an IC50 [1] of 417 µM. It also gave a Ki [2] of 609 µM and an IC50 [2] of 1340 µM.
Work on Cl.Cl.Cl.Nc1cccc(CC2CN(Cc3ccccc3)CC2NCCCO)n1 (racemic) [Compound P-5] yielded a Selectivity n/i [1] of 8.27, a Ki [1] of 305 µM and an IC50 [1] of 2650 µM. It also gave a Ki [2] of 2520 µM and an IC50 [2] of 5560 µM.
Work on Cl.Cl.Cl.NCCN1C[C@H](Cc2cccc(N)n2)[C@@H](O)C1 (racemic) [Compound P-6] yielded a Selectivity n/i [1] of 8.41, a Ki [1] of 12.4 µM and an IC50 [1] of 108 µM. The Ki [2] was 105 µM and the IC50 [2] was 231 µM.
Compound Cl.Cl.Cl.Cl.NCCN1CC(Cc2cccc(N)n2)C(NCCCc2ccccc2)C1 (racemic) [Compound P-7] has a Selectivity n/i [1] of 109.99, a Ki [1] of 3.98 µM and an IC50 [1] of 34.6 µM. The Ki [2] was 438 µM and the IC50 [2] was 965 µM.
Work on NCCN1CC(Cc2cccc(N)n2)C(NCCCO)C1 (racemic) [Compound P-8] yielded a Ki [2] of 652 µM and an IC50 [2] of 1440 µM.
With Cl.Cl.Cl.Cl.NCCN1CC(Cc2cccc(N)n2)C(NCCCc2ccccc2)C1 (racemic) [Compound P-9] the Selectivity n/i [1] was 10.28, the Ki [1] was 28.6 µM and the IC50 [1] was 249 µM. For the same compound, the Ki [2] was 295 µM and the IC50 [2] was 649 µM.
Work on NCCN1C[C@H](Cc2cccc(N)n2)[C@H](NCCCO)C1 (racemic) [Compound P-10] yielded a Ki [2] of 1250 µM and an IC50 [2] of 2760 µM.
Nc1cccc(CC2CNCC2NCCCO)n1 (racemic) [Compound P-13] showed a Ki [2] of 234 µM and an IC50 [2] of 515 µM.
Nc1cccc(C[C@H]2CNC[C@H]2NCCCO)n1 (racemic) [Compound P-28] gave a Ki [2] of 143 µM and an IC50 [2] of 315 µM.
For Cl.Cl.Cl.Cl.NCCNC1CC(N)CC1Cc1cccc(N)n1 (racemic) [Compound P-44], the Selectivity n/i [1] was 21.02, the Ki [1] was 2.47 µM and the IC50 [1] was 21.5 µM. The Ki [2] was 51.9 µM and the IC50 [2] was 114 µM.
Work on Cl.Cl.Cl.Cl.NCCNC1CC(N)CC1Cc1cccc(N)n1 (racemic) [Compound P-45] yielded a Selectivity n/i [1] of 15.51, a Ki [1] of 4.61 µM and an IC50 [1] of 40.1 µM. It also gave a Ki [2] of 71.5 µM and an IC50 [2] of 158 µM.
Cl.Cl.Cl.Cl.Nc1cccc(CC2CNCC2NCC2CCCN2)n1 (centres unmarked) [Compound P-23] was tested, and the Selectivity n/i [1] was 9.30, the Ki [1] was 11.2 µM and the IC50 [1] was 96.9 µM. It also gave a Ki [2] of 104 µM and an IC50 [2] of 229 µM.
For Cl.Cl.Cl.Cl.Nc1cccc(CC2CNCC2NCC2CCCN2)n1 (centres unmarked) [Compound P-24], the Selectivity n/i [1] was 21.15, the Ki [1] was 14.5 µM and the IC50 [1] was 126 µM. The Ki [2] was 306 µM and the IC50 [2] was 674 µM.
Cl.Cl.Cl.Cl.Nc1cccc(CC2CNCC2NCC2CCCN2)n1 (centres unmarked) [Compound P-25] was tested, and the Selectivity n/i [1] was 7.58, the Ki [1] was 2.44 µM and the IC50 [1] was 21.2 µM. The Ki [2] was 18.5 µM and the IC50 [2] was 40.8 µM.
Cl.Cl.Cl.Cl.Nc1cccc(C[C@@H]2CNC[C@H]2NC[C@H]2CCCN2)n1 [Compound P-26] gave a Selectivity n/i [1] of 13.82, a Ki [1] of 12.3 µM and an IC50 [1] of 107 µM. The Ki [2] was 170 µM and the IC50 [2] was 375 µM.
Compound Cl.Cl.Cl.Cl.Nc1cccc(CC2CNCC2NCC2CCCN2)n1 (centres unmarked) [Compound P-40] has a Selectivity n/i [1] of 23.95, a Ki [1] of 3.44 µM and an IC50 [1] of 29.9 µM. The Ki [2] was 82.4 µM and the IC50 [2] was 182 µM.
